The text below walks through data of paper PMC5450702 (Toxins, 2017).

The test system of one data set is mice. Put plainly: CFA-induced inflammation and thermal hyperalgesia. The class given is in vivo, CD-1 mice. The protocol:
All experiments were approved by the Animal Care and Use Committee of the Branch of the IBCh RAS (Pushchino, Russia) protocol number No. 492/16. Adult male CD-1 mice (weight 20–30 g; obtained from the Animal Breeding Facility Branch of Shemyakin-Ovchinnikov Institute of Bioorganic Chemistry, Russian Academy of Sciences, Pushchino, Russia Federation) were housed at room temperature (23 ± 2 °C) and subjected to a 12 h light–dark cycle with food and water available ad libitum. […] The significance of the data was determined by Analysis of variance (ANOVA) followed by Turkey’s post-hoc test. Data are presented as mean ± SEM.
Paw inflammation and thermal hyperalgesia was induced using Complete Freund’s Adjuvant (CFA) suspended in an oil/saline (1:1) emulsion. The mice were injected with 20 µL of CFA emulsion into the plantar surface of the left hind-paw. The control mice were injected with 20 µL of saline. […] Paw withdrawal latency was recorded using a hot plate (53 °C) 30 min after peptide or saline administration. […] Percent inflammation was calculated according to the formula ((Postdose paw diameter − Naive paw diameter)/(Predose paw diameter − Naive paw diameter)) × 100.

The test system of the next data set is TRPA1. The conditions noted are these: ref [53]; cited from earlier work. The text has this:
Most probably, this peptide can potentiate and defunctionalize the TRPA1 receptor on sensory neurons or desensitize neurons. […] In our study, defunctionalization of ...

Data set [1] relates to myocardial voltage gated Na^+ channel. Also on record: method as in PMID 1686683. The conditions noted are these: ref [41]; cited from earlier work.
The conditions of data set [2]: ref [45], cited from earlier work. The protocol:
The capability of defensins to interact with microbial membranes is determined by the shape of the molecules, the ratio of polar to hydrophobic residues on the peptide surface, and the total positive charge given through basic amino acids rather than by their individual primary structures. Usually, increasing the overall positive charge will increase the antimicrobial activity of AMPs due to the selective action of AMPs on negatively charged bacterial membranes. Indeed, the AMP cryptidin-4 (Crp4, charge +8) more effectively associates with negatively charged biological membranes than ne ...

The test system of a further data set is sodium channels. The conditions noted are these: ref [11]; cited from earlier work.
The conditions of data set [3]: ref [11]; cited from earlier work.

Consider `CCC(=N\O)/C(C)=C/c1ccc(F)cc1` [A-967079], for which the “effect of TRPA1 antagonist on Ueq 12-1 action, CFA-induced inflammation” value in the data set on mice (A-967079 20 mg/kg p.o. 1 h before Ueq 12-1 0.2 mg/kg i.v.) is “completely blocked the effect of peptide Ueq 12-1”. Moreover, the “effect of TRPA1 antagonist on Ueq 12-1 action, thermal hyperalgesia” value in the data set with mice (A-967079 20 mg/kg p.o., Ueq 12-1 0.2 mg/kg i.v., n = 7–8) is recorded as “completely blocked the effect of peptide Ueq 12-1”.
`C=C1C(=O)O[C@H]2[C@H]1CC/C(C)=C/CC[C@@]1(C)O[C@@H]21` [parthenolide]: in the data set on TRPA1, the TRPA1 activity entry is given as “partial agonist of TRPA1”.
As to “Anthopleurin-A: 49-residue polypeptide from Anthopleura xanthogrammica”, the “effect on myocardial voltage gated Na^+ channel” value in data set [1] was “delayed inactivation”.
For “cryptidin-4 (Crp4: mouse alpha-defensin 4 antimicrobial peptide (LRGLLCYCRKGHCKRGERVRGTCGIRFLYCCPRR; UniProt P28311 59-92, looked up)”, in data set [2], the charge entry is “+8”. Moreover, the association with membranes entry in data set [2] (versus neutral membranes) is on record as “more effectively associates with negatively charged biological membranes than neutral membranes”.
neurotoxin 2 (ATX-II): the “effect on sodium channels gating” value in the data set on sodium channels is given as “affect sodium channels gating”. Moreover, the antimicrobial properties entry in data set [3] is “have antimicrobial properties”.
